Experimental data as given in patent US5693628A, “11-benzaldoxime-estra-diene derivatives, methods for their production and pharmaceuticals containing these compounds” (priority 1994, dated 1997).

Tests used:
oestrogen receptor = biological target: T1, oestrogen receptor (Oryctolagus cuniculus, UniProt G1SML6); test: relative molar bonding affinity to oestrogen receptor (competitive bonding); type: binding; conditions: estradiol = 100%; uterine cytosol of immature rabbit; 3H-ethinyl estradiol, 3 nM; 18 h, 0-4° C.
T1 construct: uterine cytosol of the immature rabbit; from tissue; host or cells: uterus (cytosol) of immature rabbit
T1 sequence (G1SML6 1-598): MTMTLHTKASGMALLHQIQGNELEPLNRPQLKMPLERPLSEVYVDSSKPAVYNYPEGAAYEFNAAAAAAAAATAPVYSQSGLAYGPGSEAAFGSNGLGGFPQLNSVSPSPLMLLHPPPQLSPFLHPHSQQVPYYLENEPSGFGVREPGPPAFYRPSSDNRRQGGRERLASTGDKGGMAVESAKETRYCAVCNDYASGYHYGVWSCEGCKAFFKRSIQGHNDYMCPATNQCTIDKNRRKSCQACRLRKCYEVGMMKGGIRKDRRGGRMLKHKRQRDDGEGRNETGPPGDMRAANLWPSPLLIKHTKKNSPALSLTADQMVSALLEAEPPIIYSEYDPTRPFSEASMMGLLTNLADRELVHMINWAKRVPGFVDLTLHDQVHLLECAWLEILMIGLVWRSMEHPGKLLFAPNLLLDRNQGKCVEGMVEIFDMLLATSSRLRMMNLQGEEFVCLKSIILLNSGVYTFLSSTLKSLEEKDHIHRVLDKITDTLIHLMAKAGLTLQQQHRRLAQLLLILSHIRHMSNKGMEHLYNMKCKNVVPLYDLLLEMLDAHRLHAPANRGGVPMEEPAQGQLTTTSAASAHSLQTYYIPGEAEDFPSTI
Procedure: (§1) Measurement of bonding affinity for receptors
(§2) Receptor bonding affinity was determined by competitive bonding of a specifically binding ^3 H labelled hormone (tracer) and the compound to be tested to receptors in the cytosol from animal target organs. It was tried to obtain receptor saturation and a balanced reaction. The following incubation conditions were selected:
Oestrogen receptor: uterine cytosol of the immature rabbit, kept at -30° C. in TED buffer with 250 mM of saccharose. Tracer: ^3 H-ethinyl estradiol, 3 nM; reference substance: 17β-estradiol.
(§3) After an incubation period of 18 hours at 0°-4° C., bonded and free steroid was separated by mixing in active carbon/dextrane (1%/0.1%), centrifuging off and measuring the bonded ^3 H activity in the supernatant.
The IC50 for the compound to be tested and for the reference substance were determined from measurements in series of concentrations. The quotient of both values (×100%) is the relative molar bonding affinity.

progesterone receptor = biological target: T2, progesterone receptor (Oryctolagus cuniculus, UniProt P06186); test: relative molar bonding affinity to progesterone receptor (competitive bonding); type: binding; conditions: progesterone = 100%; uterine cytosol of estradiol-primed rabbit; 3H-ORG 2058, 5 nM; 18 h, 0-4° C.
T2 construct: uterine cytosol of the estradiol-primed rabbit; from tissue; host or cells: uterus (cytosol) of estradiol-primed rabbit
T2 sequence (P06186 1-930): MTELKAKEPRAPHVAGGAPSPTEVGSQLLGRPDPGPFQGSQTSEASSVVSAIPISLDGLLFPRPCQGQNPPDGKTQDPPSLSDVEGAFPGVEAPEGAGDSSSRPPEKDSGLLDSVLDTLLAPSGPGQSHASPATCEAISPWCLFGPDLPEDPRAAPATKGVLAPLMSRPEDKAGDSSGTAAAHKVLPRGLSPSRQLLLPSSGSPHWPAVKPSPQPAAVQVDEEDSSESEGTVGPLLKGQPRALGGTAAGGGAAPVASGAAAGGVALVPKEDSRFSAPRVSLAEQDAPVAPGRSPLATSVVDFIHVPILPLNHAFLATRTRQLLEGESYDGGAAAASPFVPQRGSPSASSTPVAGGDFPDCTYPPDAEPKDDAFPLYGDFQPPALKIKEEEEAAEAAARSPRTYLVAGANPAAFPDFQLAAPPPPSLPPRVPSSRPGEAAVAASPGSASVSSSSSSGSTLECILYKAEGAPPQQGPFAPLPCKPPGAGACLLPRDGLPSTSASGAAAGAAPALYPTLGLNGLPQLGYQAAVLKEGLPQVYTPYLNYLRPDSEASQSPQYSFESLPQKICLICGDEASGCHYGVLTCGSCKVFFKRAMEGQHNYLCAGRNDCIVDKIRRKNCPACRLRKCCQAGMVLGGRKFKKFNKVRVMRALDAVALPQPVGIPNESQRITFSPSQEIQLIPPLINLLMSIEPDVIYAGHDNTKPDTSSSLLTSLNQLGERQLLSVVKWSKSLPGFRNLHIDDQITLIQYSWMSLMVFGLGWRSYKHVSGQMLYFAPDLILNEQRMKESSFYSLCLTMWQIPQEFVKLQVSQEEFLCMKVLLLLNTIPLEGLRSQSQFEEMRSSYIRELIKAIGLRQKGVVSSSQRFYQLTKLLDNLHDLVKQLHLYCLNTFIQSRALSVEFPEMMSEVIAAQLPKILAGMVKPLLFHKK
Procedure: as §1, §2
Progesterone receptor: uterine cytosol of the estradiol-primed rabbit, kept at -30° C. in TED buffer (20 mM Tris/HCl, pH 7.4; 1 mM ethylene diamine tetraacetate, 2 mM dithio threitol) with 250 mM of saccharose.
as §3
(§4) The IC50 for the compound to be tested and for the reference substance were determined from measurements in series of concentrations.

glucocorticoid receptor = biological target: T3, glucocorticoid receptor (Rattus norvegicus, UniProt P06536); test: relative molar bonding affinity to glucocorticoid receptor (competitive bonding); type: binding; conditions: dexamethasone = 100%; thymus cytosol of adrenalectomized rat; 3H-dexamethasone, 20 nM; 18 h, 0-4° C.
T3 construct: thymus cytosol of the adrenalectomized rat; from tissue; host or cells: thymus (cytosol) of adrenalectomized rat
T3 sequence (P06536 1-795): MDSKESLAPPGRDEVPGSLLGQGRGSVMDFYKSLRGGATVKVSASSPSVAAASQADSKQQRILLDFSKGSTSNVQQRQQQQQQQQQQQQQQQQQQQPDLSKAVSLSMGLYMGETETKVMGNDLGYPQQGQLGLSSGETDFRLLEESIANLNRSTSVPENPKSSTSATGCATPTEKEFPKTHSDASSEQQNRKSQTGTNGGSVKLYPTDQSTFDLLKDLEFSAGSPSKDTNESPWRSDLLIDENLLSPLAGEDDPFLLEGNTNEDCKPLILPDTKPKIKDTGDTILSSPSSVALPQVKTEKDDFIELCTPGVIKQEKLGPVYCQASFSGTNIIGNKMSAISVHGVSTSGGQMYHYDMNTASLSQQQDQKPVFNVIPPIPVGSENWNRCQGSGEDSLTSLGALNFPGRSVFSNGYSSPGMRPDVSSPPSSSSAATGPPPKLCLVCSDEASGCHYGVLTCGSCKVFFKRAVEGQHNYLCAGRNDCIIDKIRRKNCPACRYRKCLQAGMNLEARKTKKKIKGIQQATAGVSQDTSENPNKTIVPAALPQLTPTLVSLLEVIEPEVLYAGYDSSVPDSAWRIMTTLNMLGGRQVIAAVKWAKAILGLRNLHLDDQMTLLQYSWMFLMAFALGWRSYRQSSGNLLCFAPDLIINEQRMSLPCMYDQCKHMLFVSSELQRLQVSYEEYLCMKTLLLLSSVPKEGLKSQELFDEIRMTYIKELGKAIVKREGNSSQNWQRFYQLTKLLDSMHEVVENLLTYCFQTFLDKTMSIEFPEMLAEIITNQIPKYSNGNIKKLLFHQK
Procedure: as §1, §2
Glucocorticoid receptor: thymus cytosol of the adrenalectomized rat, thymi kept at -30° C., buffer: TED. Tracer: ^3 H-dexamethasone, 20 nM; reference substance: dexamethasone.
as §3, §4

[1] = system: uterine weight in cyclic guinea pigs; test: Influence on uterine weight in cyclic guinea pigs; type: in vivo, guinea pig
Text: FIG. 1. is a chart showing a comparison of the influence on uterine weight in cyclic guineau pigs when treated with the antigestagen agents RU 486, a control (the vehicle), and a compound of the present invention, J 867 (as prepared in accordance with Example 1).
FIG. 1 compares the influence of antigestagen treatment of cyclic guinea pigs on uterine weights for J 867 and RU 486.
Treatment of female guinea pigs with antigestagen
Treatment of adult female guinea pigs from day 10 to day 18 of the cycle (autopsy). Administration of the specified doses using subcutaneous osmotic pumps (Type 2 ML1 ALZET). Vehicle: […] propylene glycol/24 hrs.

[2] = system: early gravidity in the rat; test: Early abortive effect / inhibition of early gravidity in the rat; type: in vivo; conditions: 5th to 7th day of pregnancy; for complete gravidity inhibition % / complete gravidity inhibition N*/N (females not pregnant/inseminated females): empty uteri
Procedure: Inhibition of early gravidity in the rat
Female rats are mated in the pro-oestrus. If semen is found in the vaginal smear on the next day, this day is counted as day 1 (=d1) of the gravidity. Treatment with the test substance or vehicle is applied on d5-d7, autopsy is carried out on d9. The substances are injected subcutaneously in 0.2 ml of vehicle (benzyl benzoate/castor oil 1+4).

COC[C@]1(OC)CC[C@H]2[C@@H]3CCC4=CC(=O)CCC4=C3[C@@H](c3ccc(C=NOC)cc3)C[C@@]21C [Example 2, 11β-[4-(methoximinomethyl)phenyl]-17β-methoxy-17α-methoxymethyl-estra-4,9-diene-3-on] was tested. Which “relative molar bonding affinity (RBA) to oestrogen rec.” value (oestrogen receptor) did it give?
The value was under 0.1%.

What about the “relative molar bonding affinity (RBA) to progesterone receptor” value (progesterone receptor) of the same compound?
Its value is 136%.

What about the “relative molar bonding affinity (RBA) to glucocorticoid receptor” value (glucocorticoid receptor) of the same compound?
The value was 82%.

For COC[C@]1(OC)CC[C@H]2[C@@H]3CCC4=CC(=O)CCC4=C3[C@@H](c3ccc(C=NOC(C)=O)cc3)C[C@@]21C [Example 3, 11β-[4-(acetyloximinomethyl)phenyl]-17β-methoxy-17α-methoxymethyl-estra-4,9-diene-3-on], which “relative molar bonding affinity (RBA) to oestrogen rec.” value (oestrogen receptor) is on record?
The value was under 0.1%.

What about the “relative molar bonding affinity (RBA) to progesterone receptor” value (progesterone receptor) of the same compound?
The value was 236%.

And the “relative molar bonding affinity (RBA) to glucocorticoid receptor” value (glucocorticoid receptor)?
The value was 73%.

Which results are given for CCOC(=O)ON=Cc1ccc([C@H]2C[C@@]3(C)[C@@H](CC[C@]3(COC)OC)[C@@H]3CCC4=CC(=O)CCC4=C32)cc1 [Example 4]?
relative molar bonding affinity (RBA) to oestrogen rec. (oestrogen receptor): < 0.1%; relative molar bonding affinity (RBA) to progesterone receptor (progesterone receptor): 294%; relative molar bonding affinity (RBA) to glucocorticoid receptor (glucocorticoid receptor): 66%

How did the “relative molar bonding affinity (RBA) to oestrogen rec.” value (oestrogen receptor) turn out when C[C@]12C[C@H](c3ccc(C=NO)cc3)C3=C4CCC(=O)C=C4CC[C@H]3[C@@H]1CC[C@@]2(O)CCl [Example 5, 17α-chloromethyl-11β-[4-(hydroximinomethyl)phenyl]-17β-hydroxy-estra-4,9-diene-3-on] was run?
Its value is under 0.1%.

What about the “relative molar bonding affinity (RBA) to progesterone receptor” value (progesterone receptor) of the same compound?
The value was 90%.

And the “relative molar bonding affinity (RBA) to glucocorticoid receptor” value (glucocorticoid receptor)?
The value was 32%.

What does the source list for CC#C[C@]1(O)CC[C@H]2[C@@H]3CCC4=CC(=O)CCC4=C3[C@@H](c3ccc(N(C)C)cc3)C[C@@]21C [RU 486, Mifepristone, reference compound]?
uterine weights of cyclic guinea pigs, high dose ([1]; 6 mg/24 hrs, s.c. osmotic pump, day 10 to 18 of cycle): reduce the uterine weights of the treated animals; uterine weights in the anovulatorial cycle in guinea pigs ([1]; doses at which RU 486 increases uterine weights, compared with control animals): increases uterine weights; uterine weights of cyclic guinea pigs, low dose ([1]; low dosis, s.c. osmotic pump, day 10 to 18 of cycle): slight gain in uterine weights; complete gravidity inhibition % ([2]; 0.3 mg/animal/day s.c.): 0%; complete gravidity inhibition N*/N (females not pregnant/inseminated females) ([2]; 0.3 mg/animal/day s.c.): 0/5; complete gravidity inhibition % ([2]; 1.0 mg/animal/day s.c.): 40%; complete gravidity inhibition N*/N (females not pregnant/inseminated females) ([2]; 1.0 mg/animal/day s.c.): 2/5; complete gravidity inhibition % ([2]; 3.0 mg/animal/day s.c.): 100%; complete gravidity inhibition N*/N (females not pregnant/inseminated females) ([2]; 3.0 mg/animal/day s.c.): 5/5; ED 50 ([2]; s.c., graphic determination): 1.3 mg/animal/day; relative molar bonding affinity (RBA) to glucocorticoid receptor (glucocorticoid receptor): 685%

For CN(C)c1ccc([C@H]2C[C@]3(C)[C@@H](CC[C@]3(O)CCCO)[C@@H]3CCC4=CC(=O)CCC4=C32)cc1 [ZK 98299, Onapristone, reference compound], which “relative molar bonding affinity (RBA) to progesterone receptor” value (progesterone receptor) is on record?
The value was 22%.

And the “relative molar bonding affinity (RBA) to glucocorticoid receptor” value (glucocorticoid receptor)?
The value was 39%.
